The results in this text go back to ChEMBL document CHEMBL4402557, “Nidufexor (LMB763), a Novel FXR Modulator for the Treatment of Nonalcoholic Steatohepatitis” (J Med Chem, 2020).

Data set [1] can be described thus: Solubility of compound in pH 6.5 FASSIF at 2 mg measured for 5 to 60 mins by UV spectroscopic method. Format: physicochemical.
Data set [2] is described as follows: Permeability of the compound by PAMPA. Format: ADME.
Data set [3] in a line: Oral bioavailability in Wistar rat at 10 mg/kg in presence of 0.5% CMC/0.5% Tween 80. Format: ADME, organism-based. The note with it: in vivo.
Data set [4] in a line: Half life in Wistar rat at 10 mg/kg, po. To be noted: in vivo. Format: ADME, organism-based.
Data set [5] can be described thus: Half life in Wistar rat at 100 mg/kg, po. In kind it is ADME, organism-based. The note with it: in vivo.
For data set [6], the target named is T1, G-protein coupled bile acid receptor 1 (Homo sapiens) (UniProt Q8TDU6).
T1 sequence (whole entry): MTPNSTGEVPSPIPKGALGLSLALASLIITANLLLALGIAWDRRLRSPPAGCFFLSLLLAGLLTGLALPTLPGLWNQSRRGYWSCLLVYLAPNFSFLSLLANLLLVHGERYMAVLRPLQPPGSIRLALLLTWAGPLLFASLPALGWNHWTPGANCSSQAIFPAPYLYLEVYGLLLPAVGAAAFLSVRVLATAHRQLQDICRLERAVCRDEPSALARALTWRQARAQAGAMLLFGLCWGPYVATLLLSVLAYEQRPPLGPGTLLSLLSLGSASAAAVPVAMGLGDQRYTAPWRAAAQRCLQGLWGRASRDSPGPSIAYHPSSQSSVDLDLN
Kind of data set: Agonist activity at human GPBAR1 expressed in Jurkat cells assessed as increase in intracellular cAMP level incubated for 1 hr by fluorescence based assay relative to control. In kind it is functional, cell-based.

Data set [7] deals with T2, Glucocorticoid receptor (Homo sapiens, UniProt P04150).
T2 sequence (P04150 whole entry): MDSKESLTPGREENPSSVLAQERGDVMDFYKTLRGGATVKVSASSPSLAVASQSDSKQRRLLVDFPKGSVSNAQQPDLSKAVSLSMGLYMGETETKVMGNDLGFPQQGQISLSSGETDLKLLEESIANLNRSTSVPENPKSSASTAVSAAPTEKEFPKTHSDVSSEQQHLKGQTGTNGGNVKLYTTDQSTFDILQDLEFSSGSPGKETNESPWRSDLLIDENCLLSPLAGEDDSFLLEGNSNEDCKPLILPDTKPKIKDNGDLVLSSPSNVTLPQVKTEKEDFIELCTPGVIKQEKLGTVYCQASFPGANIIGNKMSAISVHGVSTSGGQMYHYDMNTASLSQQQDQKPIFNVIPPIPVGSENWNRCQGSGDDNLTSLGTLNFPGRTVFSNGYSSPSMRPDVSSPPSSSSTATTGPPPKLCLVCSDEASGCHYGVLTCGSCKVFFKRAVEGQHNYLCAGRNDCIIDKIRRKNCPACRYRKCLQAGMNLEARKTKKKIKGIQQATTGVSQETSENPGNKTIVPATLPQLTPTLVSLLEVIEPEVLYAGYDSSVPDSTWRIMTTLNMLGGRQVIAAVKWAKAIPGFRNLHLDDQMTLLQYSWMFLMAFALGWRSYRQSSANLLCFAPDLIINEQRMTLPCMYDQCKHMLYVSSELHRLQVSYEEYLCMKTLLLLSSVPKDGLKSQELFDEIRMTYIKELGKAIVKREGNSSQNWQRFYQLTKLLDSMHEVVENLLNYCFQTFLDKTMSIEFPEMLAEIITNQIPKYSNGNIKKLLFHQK
Kind of data set: Agonist activity at Glucocorticoid receptor (unknown origin) incubated for 2 hrs by TR-FRET assay. A general note: TR-FRET usually uses a lanthanide donor and a delayed reading to cut background.

In data set [8] the target is T3, Oxysterols receptor LXR-alpha (Homo sapiens, UniProt Q13133).
T3 sequence (Q13133 whole entry): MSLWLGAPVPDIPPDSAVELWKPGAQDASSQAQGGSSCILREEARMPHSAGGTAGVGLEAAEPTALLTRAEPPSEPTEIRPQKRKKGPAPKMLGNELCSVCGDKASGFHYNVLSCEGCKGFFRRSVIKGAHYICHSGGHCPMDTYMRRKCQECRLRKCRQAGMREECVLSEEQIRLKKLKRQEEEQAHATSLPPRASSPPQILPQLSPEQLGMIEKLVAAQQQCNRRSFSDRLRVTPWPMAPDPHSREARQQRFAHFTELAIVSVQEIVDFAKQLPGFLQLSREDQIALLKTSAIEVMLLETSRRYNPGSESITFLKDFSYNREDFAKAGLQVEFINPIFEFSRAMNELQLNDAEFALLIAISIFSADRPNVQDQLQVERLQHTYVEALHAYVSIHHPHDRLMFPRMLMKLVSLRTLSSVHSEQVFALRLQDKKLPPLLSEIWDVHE
Kind of data set: Agonist activity at GAL4-fused LXR LBD (unknown origin) expressed in HEK293T cells incubated for 24 by BrightGlo reagent based assay. In kind it is cell-based.

The target in data set [9] is T4, Estrogen receptor (Homo sapiens, UniProt P03372).
T4 sequence (P03372 whole entry): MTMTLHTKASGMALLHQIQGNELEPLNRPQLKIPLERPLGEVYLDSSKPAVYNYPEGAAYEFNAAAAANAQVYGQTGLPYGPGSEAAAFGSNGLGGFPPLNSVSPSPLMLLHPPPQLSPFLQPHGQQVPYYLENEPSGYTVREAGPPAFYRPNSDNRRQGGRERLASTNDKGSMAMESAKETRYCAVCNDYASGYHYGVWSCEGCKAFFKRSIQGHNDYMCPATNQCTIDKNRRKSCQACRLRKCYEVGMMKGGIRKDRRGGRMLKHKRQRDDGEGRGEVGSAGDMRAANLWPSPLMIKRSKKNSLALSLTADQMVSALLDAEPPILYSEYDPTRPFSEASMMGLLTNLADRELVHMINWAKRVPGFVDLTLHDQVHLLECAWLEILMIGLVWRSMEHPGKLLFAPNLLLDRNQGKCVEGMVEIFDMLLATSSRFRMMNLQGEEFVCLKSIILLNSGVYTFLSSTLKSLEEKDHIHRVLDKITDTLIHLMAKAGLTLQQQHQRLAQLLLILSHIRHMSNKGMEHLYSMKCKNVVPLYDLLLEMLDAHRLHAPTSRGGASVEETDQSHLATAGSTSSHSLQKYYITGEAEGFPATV
Description: Agonist activity at GAL4-fused ERalpha (unknown origin) expressed in HEK293T cells incubated for 24 by BrightGlo reagent based assay. Format: cell-based.

Data set [10] deals with Rattus norvegicus. Description: In-vivo agonist activity at FXR in Han Wistar rat assessed as upregulation of FGF15 mRNA level in ileum at 1.5 mg/kg administered via oral gavage once daily for 14 days measured 10 hrs post last dose by qRT-PCR analysis relative to control. Format: functional.
The species named for data set [11] is Mus musculus. Kind of data set: Anti Steato-hepatitic activity in C57BL/6J mouse STAM model assessed as change in Nr0b2 gene level in liver. In kind it is functional, organism-based.
For data set [12], the species on record is Mus musculus. Description: Anti Steato-hepatitic activity in C57BL/6J mouse STAM model assessed as change in OSTb gene level in liver. Format: functional, organism-based.
The nature of data set [13]: Clearance in mouse at 3 mg/kg, iv. In kind it is ADME, organism-based. To be noted: in vivo.
The nature of data set [14]: Oral bioavailability in rabbit at 10 mg/kg. In kind it is ADME, organism-based, Oryctolagus cuniculus. The note with it: in vivo.

Converted amounts (≈) assume the structure as drawn. The source made the active and inactive calls. The rule behind the calls is not given here.

In general, solubility refers to the dissolved amount per volume that the medium holds. As a reminder, the bioavailability is the share of a dose that reaches the circulation, judged against a reference dose that is usually intravenous. The term half-life denotes how long it takes for the measured level to halve. Read a high half-life as slow loss. As a reminder, the EC50 is the concentration giving half of the maximal effect. High values mean weaker potency, low ones greater potency. A word on the clearance: it is the rate of elimination divided by the concentration. In data set [1], `Cn1nc(C(=O)N(Cc2ccccc2)Cc2ccc(C(=O)O)cc2)c2c1-c1cc(Cl)ccc1OC2` [NIDUFEXOR] came in with a solubility of 3 µM (≈ 1.46 µg/mL). This compound also gave a permeability in data set [2] of 94%. Moreover, the bioavailability was found to be 10% in [3] and 52% in data set [14]. Besides, the values for the half-life in data set [4] and in data set [5] were 342 min and 336 min, respectively. In [6], the Efficacy is 13%. For the same compound, the EC50 is more than 30 µM in [7], more than 10 µM in data set [8] and more than 10 µM in data set [9]. The “fold change (FC)” value in data set [10] came out at 30. Further, the result in data set [11] and in [12] was Active. In data set [13], this compound gave a clearance of 9.8 mL/min/kg.
